{"source": "ChEMBL document CHEMBL5543068", "about": "“Mitochondrial targeting derivatives of honokiol enhanced selective antitumor activity in NCI-H446 cells and decreased in vivo toxicity in Caenorhabditis elegans” (Eur J Med Chem, 2024)", "key": {"[1]": {"test": "Toxicity in Caenorhabditis elegans assessed as reduction in growth by measuring body length at 20 to 100 uM measured after 72 hrs by […] microscopic analysis", "conditions": "dose 20-100 µM"}, "NCI-H446 [2]": {"test_system": "NCI-H446", "test": "Induction of apoptosis in human NCI-H446 cells assessed as early apoptotic cells at 0.25 uM incubated for 24 hrs by Annexin V-FITC/PI staining based flow cytometric analysis (reference value: 0.37 %)", "type": "functional"}, "NCI-H446 [3]": {"test_system": "NCI-H446", "test": "Induction of apoptosis in human NCI-H446 cells assessed as viable cells at 1 uM incubated for 24 hrs by Annexin V-FITC/PI staining based flow cytometric analysis (reference value: 96.8 %)", "type": "functional", "conditions": "read-out: Activity"}, "NCI-H446 [4]": {"test_system": "NCI-H446", "test": "Induction of apoptosis in human NCI-H446 cells assessed as viable cells at 2 uM incubated for 24 hrs by Annexin V-FITC/PI staining based flow cytometric analysis (reference value: 96.8 %)", "type": "functional", "conditions": "read-out: Activity"}, "NCI-H446 [5]": {"test_system": "NCI-H446", "test": "Antiproliferative activity against human NCI-H446 cells assessed as reduction in cell viability incubated for 48 hrs by MTT assay", "type": "functional, cell-based", "conditions": "NCI-H446, 48 h"}, "NCI-H446 [6]": {"test_system": "NCI-H446", "test": "Induction of apoptosis in human NCI-H446 cells assessed as early apoptotic cells at 2 uM incubated for 24 hrs by Annexin V-FITC/PI staining based flow cytometric analysis (reference value: 0.37 %)", "type": "functional"}, "Cell membrane": {"test_system": "Cell membrane", "test": "Induction of mitochondrial membrane potential loss in human NCI-H446 cells at 0.25 uM incubated for 24 hrs by JC-1 staining based flow cytometric analysis", "type": "cell membranes"}, "[7]": {"test": "Cytotoxicity against HBE (human bronchial epithelial) cells assessed as reduction in cell viability incubated for 48 hrs by MTT assay", "type": "toxicity, cell-based"}, "NCI-H446 [8]": {"test_system": "NCI-H446", "test": "Induction of apoptosis in human NCI-H446 cells assessed as late apoptotic cells at 0.5 uM incubated for 24 hrs by Annexin V-FITC/PI staining based flow cytometric analysis (reference value: 1.71 %)", "type": "functional"}, "NCI-H446 [9]": {"test_system": "NCI-H446", "test": "Induction of apoptosis in human NCI-H446 cells assessed as viable cells at 0.25 uM incubated for 24 hrs by Annexin V-FITC/PI staining based flow cytometric analysis (reference value: 96.8 %)", "type": "functional", "conditions": "read-out: Activity"}, "[10]": {"test": "Cytotoxicity against human HL7702 cells assessed as reduction in cell viability incubated for 48 hrs by MTT assay", "type": "toxicity, cell-based", "conditions": "HL7702 (L02) cells"}, "NCI-H446 [11]": {"test_system": "NCI-H446", "test": "Induction of apoptosis in human NCI-H446 cells assessed as necrotic cells at 0.5 uM incubated for 24 hrs by Annexin V-FITC/PI staining based flow cytometric analysis (reference value: 1.17 %)", "type": "functional"}, "NCI-H446 [12]": {"test_system": "NCI-H446", "test": "Induction of apoptosis in human NCI-H446 cells assessed as late apoptotic cells at 1 uM incubated for 24 hrs by Annexin V-FITC/PI staining based flow cytometric analysis (reference value: 1.71 %)", "type": "functional"}, "NCI-H446 [13]": {"test_system": "NCI-H446", "test": "Induction of apoptosis in human NCI-H446 cells assessed as late apoptotic cells at 0.25 uM incubated for 24 hrs by Annexin V-FITC/PI staining based flow cytometric analysis (reference value: 1.71 %)", "type": "functional"}, "NCI-H446 [14]": {"test_system": "NCI-H446", "test": "Induction of apoptosis in human NCI-H446 cells assessed as early apoptotic cells at 0.5 uM incubated for 24 hrs by Annexin V-FITC/PI staining based flow cytometric analysis (reference value: 0.37 %)", "type": "functional"}, "NCI-H446 [15]": {"test_system": "NCI-H446", "test": "Induction of apoptosis in human NCI-H446 cells assessed as necrotic cells at 0.25 uM incubated for 24 hrs by Annexin V-FITC/PI staining based flow cytometric analysis (reference value: 1.17 %)", "type": "functional"}, "NCI-H446 [16]": {"test_system": "NCI-H446", "test": "Induction of apoptosis in human NCI-H446 cells assessed as viable cells at 0.5 uM incubated for 24 hrs by Annexin V-FITC/PI staining based flow cytometric analysis (reference value: 96.8 %)", "type": "functional", "conditions": "read-out: Activity"}, "NCI-H446 [17]": {"test_system": "NCI-H446", "test": "Induction of apoptosis in human NCI-H446 cells assessed as necrotic cells at 2 uM incubated for 24 hrs by Annexin V-FITC/PI staining based flow cytometric analysis (reference value: 1.17 %)", "type": "functional"}, "NCI-H446 [18]": {"test_system": "NCI-H446", "test": "Induction of apoptosis in human NCI-H446 cells assessed as late apoptotic cells at 2 uM incubated for 24 hrs by Annexin V-FITC/PI staining based flow cytometric analysis (reference value: 1.71 %)", "type": "functional"}, "NCI-H446 [19]": {"test_system": "NCI-H446", "test": "Induction of ROS production in human NCI-H446 cells assessed as increase in intracellular ROS level at 2 uM incubated for 24 hrs by DCFH-DA staining based flow cytometric analysis", "type": "functional, cell-based"}, "HepG2": {"test_system": "HepG2", "test": "Antiproliferative activity against human HepG2 cells assessed as reduction in cell viability incubated for 48 hrs by MTT assay", "type": "functional, cell-based", "conditions": "HepG2, 48 h"}, "[20]": {"test": "Toxicity in Caenorhabditis elegans assessed as reduction in movement speed at 100 uM measured after 72 hrs by […] microscopic analysis"}, "A549": {"test_system": "A549", "test": "Antiproliferative activity against human A549 cells assessed as reduction in cell viability incubated for 48 hrs by MTT assay", "type": "functional, cell-based", "conditions": "A549, 48 h"}, "NCI-H446 [21]": {"test_system": "NCI-H446", "test": "Induction of apoptosis in human NCI-H446 cells assessed as necrotic cells at 1 uM incubated for 24 hrs by Annexin V-FITC/PI staining based flow cytometric analysis (reference value: 1.17 %)", "type": "functional"}, "NCI-H446 [22]": {"test_system": "NCI-H446", "test": "Induction of apoptosis in human NCI-H446 cells assessed as early apoptotic cells at 1 uM incubated for 24 hrs by Annexin V-FITC/PI staining based flow cytometric analysis (reference value: 0.37 %)", "type": "functional"}, "NCI-H446 [23]": {"test_system": "NCI-H446", "test": "Induction of apoptosis in human NCI-H446 cells assessed as crumpled nuclei at 2 uM incubated for 24 hrs by DAPI staining based fluorescence inverted microscopic analysis", "type": "functional, cell-based"}}, "note": "The source made the active and inactive calls. No cut-off for these calls is given here.", "data": [{"smiles": "C=CCc1ccc(O)c(-c2ccc(O)c(CC=C)c2)c1", "note": "[HONOKIOL]", "values": [{"measurement": "Activity", "setting": "[1]", "value": "Toxic"}, {"measurement": "Activity", "setting": "NCI-H446 [2]", "value": 0.38, "unit": "%"}, {"measurement": "viability at 1 µM", "setting": "NCI-H446 [3]", "value": 73.3, "unit": "%"}, {"measurement": "viability at 2 µM", "setting": "NCI-H446 [4]", "value": 69.1, "unit": "%"}, {"measurement": "IC50", "setting": "NCI-H446 [5]", "value": 44.5, "unit": "µM"}, {"measurement": "Activity", "setting": "NCI-H446 [6]", "value": 2.61, "unit": "%"}, {"measurement": "Activity", "setting": "Cell membrane", "value": "inactive"}, {"measurement": "IC50 at 48 h", "setting": "[7]", "value": 43.7, "unit": "µM"}, {"measurement": "Activity", "setting": "NCI-H446 [8]", "value": 1.98, "unit": "%"}, {"measurement": "viability at 0.25 µM", "setting": "NCI-H446 [9]", "value": 95.4, "unit": "%"}, {"measurement": "IC50 at 48 h", "setting": "[10]", "value": 47.9, "unit": "µM"}, {"measurement": "Activity", "setting": "NCI-H446 [11]", "value": 1.53, "unit": "%"}, {"measurement": "Activity", "setting": "NCI-H446 [12]", "value": 12.8, "unit": "%"}, {"measurement": "Activity", "setting": "NCI-H446 [13]", "value": 2.04, "unit": "%"}, {"measurement": "Activity", "setting": "NCI-H446 [14]", "value": 0.47, "unit": "%"}, {"measurement": "Activity", "setting": "NCI-H446 [15]", "value": 2.17, "unit": "%"}, {"measurement": "viability at 0.5 µM", "setting": "NCI-H446 [16]", "value": 96, "unit": "%"}, {"measurement": "Activity", "setting": "NCI-H446 [17]", "value": 15.3, "unit": "%"}, {"measurement": "Activity", "setting": "NCI-H446 [18]", "value": 13, "unit": "%"}, {"measurement": "Activity", "setting": "NCI-H446 [19]", "value": "inactive"}, {"measurement": "IC50", "setting": "HepG2", "value": 41.4, "unit": "µM"}, {"measurement": "Activity", "setting": "[20]", "value": "Toxic"}, {"measurement": "IC50", "setting": "A549", "value": 48.1, "unit": "µM"}, {"measurement": "Activity", "setting": "NCI-H446 [21]", "value": 12.8, "unit": "%"}, {"measurement": "Activity", "setting": "NCI-H446 [22]", "value": 1.1, "unit": "%"}]}, {"smiles": "C=CCc1ccc(OCCC)c(-c2ccc(OCCCCCC[n+]3ccc(/C=C/c4c[nH]c5ccccc45)cc3)c(CC=C)c2)c1", "values": [{"measurement": "Activity", "setting": "NCI-H446 [23]", "value": "Active"}, {"measurement": "IC50", "setting": "NCI-H446 [5]", "value": 2.88, "unit": "µM"}, {"measurement": "IC50 at 48 h", "setting": "[7]", "value": 7.78, "unit": "µM"}, {"measurement": "IC50 at 48 h", "setting": "[10]", "value": 1.85, "unit": "µM"}, {"measurement": "IC50", "setting": "HepG2", "value": 2.03, "unit": "µM"}, {"measurement": "IC50", "setting": "A549", "value": 2.04, "unit": "µM"}]}]}
